Columns and labels:
Assay in all cases: Test E pre-/postemergence greenhouse test
Type in all cases: in vivo
[1] = tested on: surinam grass (Brachiaria decumbens)
Description: (§1) Seeds of plant species selected from corn (Zea mays), soybean (Glycine max), velvetleaf (Abutilon theophrasti), lambsquarters (Chenopodium album), poinsettia, wild (Euphorbia heterophylla), pigweed, palmer (Amaranthus palmeri), waterhemp (common waterhemp, Amaranthus rudis), surinam grass (Brachiaria decumbens), crabgrass, large (Digitaria sanguinalis), crabgrass, Brazil (Digitaria horizontalis), panicum, fall (Panicum dichotomiflorum), foxtail, giant (Setaria faberii), foxtail, green (Setaria viridis), goosegrass (Eleusine indica), johnsongrass (Sorghum halepense), ragweed (common ragweed, Ambrosia elatior), barnyardgrass (Echinochloa crus-galli), sandbur (southern sandbur, Cenchrus echinatus), arrowleaf sida (Sida rhombifolia), ryegrass, Italian (Lolium multiflorum), dayflower, VA (Virginia (VA) dayflower, Commelina virginica), field bindweed (Convolvulus arvensis), morningglory (Ipomoea coccinea), horseweed (Conyza canadensis), kochia (Kochia scoparia), nutsedge, yellow (Cyperus esculentus) and hairy beggarticks (Bidenspilosa), were planted into a silt loam soil and treated preemergence with test chemicals formulated in a non-phytotoxic solvent mixture which included a surfactant.
(§2) At the same time, plants selected from these crop and weed species and also waterhemp_RES1, (ALS & Triazine resistant common waterhemp, Amaranthus rudis), and waterhemp_RES2, (ALS & HPPD resistant common waterhemp, Amaranthus rudis) were planted in pots containing Redi-Earth® planting medium (Scotts Company, 14111 Scottslawn Road, Marysville, Ohio 43041) comprising spaghnum peat moss, vermiculite, wetting agent and starter nutrients were treated with postemergence applications of test chemicals formulated in the same manner. Plants ranged in height from 2 to 18 cm for postemergence treatments (1- to 4-leaf stage). Treated plants and controls were maintained in a greenhouse for 14 to 21 d, after which time all species were compared to controls and visually evaluated. Plant response ratings, summarized in Table E, are based on a scale of 0 to 100 where 0 is no effect and 100 is complete control. A dash (-) response means no test result.

[2] = tested on: horseweed (Conyza canadensis)
Description: as §1, §2

[3] = tested on: crabgrass, large (Digitaria sanguinalis)
Description: as §1, §2

[4] = tested on: foxtail, giant (Setaria faberii)
Description: as §1, §2

[5] = tested on: pigweed, palmer (Amaranthus palmeri)
Description: as §1, §2

[6] = tested on: soybean (Glycine max)
Description: as §1, §2

[7] = tested on: ragweed (common ragweed, Ambrosia elatior)
Description: as §1, §2

[8] = tested on: waterhemp (common waterhemp, Amaranthus rudis)
Description: as §1, §2

[9] = tested on: panicum, fall (Panicum dichotomiflorum)
Description: as §1, §2

[10] = tested on: corn (Zea mays)
Description: as §1, §2

[11] = tested on: velvetleaf (Abutilon theophrasti)
Description: as §1, §2

[12] = tested on: barnyardgrass (Echinochloa crus-galli)
Description: as §1, §2

## Cc1cc(Cl)c2ccccc2c1-c1c(O)c(Cl)nn(C)c1=O [Cpd. No. 65]
[1]; Postemergence, 16 g ai/ha
  Plant response rating, Surinam Grass: 73
[1]; Postemergence, 31 g ai/ha
  Plant response rating, Surinam Grass: 78
[1]; Postemergence, 62 g ai/ha
  Plant response rating, Surinam Grass: 85
[1]; Postemergence, 125 g ai/ha
  Plant response rating, Surinam Grass: 93
[1]; Preemergence, 16 g ai/ha
  Plant response rating, Surinam Grass: 8
[1]; Preemergence, 31 g ai/ha
  Plant response rating, Surinam Grass: 92
[1]; Preemergence, 62 g ai/ha
  Plant response rating, Surinam Grass: 85
[1]; Preemergence, 125 g ai/ha
  Plant response rating, Surinam Grass: 100
[2]; Postemergence, 16 g ai/ha
  Plant response rating, Horseweed: 65
[2]; Postemergence, 31 g ai/ha
  Plant response rating, Horseweed: 75
[2]; Postemergence, 62 g ai/ha
  Plant response rating, Horseweed: 85
[2]; Postemergence, 125 g ai/ha
  Plant response rating, Horseweed: 85
[2]; Preemergence, 16 g ai/ha
  Plant response rating, Horseweed: 100
[2]; Preemergence, 31 g ai/ha
  Plant response rating, Horseweed: 100
[2]; Preemergence, 62 g ai/ha
  Plant response rating, Horseweed: 100
[2]; Preemergence, 125 g ai/ha
  Plant response rating, Horseweed: 100
[3]; Postemergence, 16 g ai/ha
  Plant response rating, Crabgrass, Large: 10
[3]; Postemergence, 31 g ai/ha
  Plant response rating, Crabgrass, Large: 13
[3]; Postemergence, 62 g ai/ha
  Plant response rating, Crabgrass, Large: 30
[3]; Postemergence, 125 g ai/ha
  Plant response rating, Crabgrass, Large: 35
[3]; Preemergence, 16 g ai/ha
  Plant response rating, Crabgrass, Large: 45
[3]; Preemergence, 31 g ai/ha
  Plant response rating, Crabgrass, Large: 18
[3]; Preemergence, 62 g ai/ha
  Plant response rating, Crabgrass, Large: 38
[3]; Preemergence, 125 g ai/ha
  Plant response rating, Crabgrass, Large: 48
[4]; Postemergence, 16 g ai/ha
  Plant response rating, Foxtail, Giant: 70
[4]; Postemergence, 31 g ai/ha
  Plant response rating, Foxtail, Giant: 88
[4]; Postemergence, 62 g ai/ha
  Plant response rating, Foxtail, Giant: 90
[4]; Postemergence, 125 g ai/ha
  Plant response rating, Foxtail, Giant: 95
[4]; Preemergence, 16 g ai/ha
  Plant response rating, Foxtail, Giant: 5
[4]; Preemergence, 31 g ai/ha
  Plant response rating, Foxtail, Giant: 78
[4]; Preemergence, 62 g ai/ha
  Plant response rating, Foxtail, Giant: 90
[4]; Preemergence, 125 g ai/ha
  Plant response rating, Foxtail, Giant: 100
[5]; Postemergence, 16 g ai/ha
  Plant response rating, Pigweed, Palmer: 35
[5]; Postemergence, 31 g ai/ha
  Plant response rating, Pigweed, Palmer: 43
[5]; Postemergence, 62 g ai/ha
  Plant response rating, Pigweed, Palmer: 68
[5]; Postemergence, 125 g ai/ha
  Plant response rating, Pigweed, Palmer: 55
[5]; Preemergence, 16 g ai/ha
  Plant response rating, Pigweed, Palmer: 40
[5]; Preemergence, 31 g ai/ha
  Plant response rating, Pigweed, Palmer: 58
[5]; Preemergence, 62 g ai/ha
  Plant response rating, Pigweed, Palmer: 80
[5]; Preemergence, 125 g ai/ha
  Plant response rating, Pigweed, Palmer: 90
[6]; Postemergence, 16 g ai/ha
  Plant response rating, Soybean: 70
[6]; Postemergence, 31 g ai/ha
  Plant response rating, Soybean: 80
[6]; Postemergence, 62 g ai/ha
  Plant response rating, Soybean: 90
[6]; Postemergence, 125 g ai/ha
  Plant response rating, Soybean: 93
[6]; Preemergence, 16 g ai/ha
  Plant response rating, Soybean: 23
[6]; Preemergence, 31 g ai/ha
  Plant response rating, Soybean: 13
[6]; Preemergence, 62 g ai/ha
  Plant response rating, Soybean: 15
[6]; Preemergence, 125 g ai/ha
  Plant response rating, Soybean: 43
[7]; Postemergence, 16 g ai/ha
  Plant response rating, Ragweed: 95
[7]; Postemergence, 31 g ai/ha
  Plant response rating, Ragweed: 93
[7]; Postemergence, 62 g ai/ha
  Plant response rating, Ragweed: 95
[7]; Postemergence, 125 g ai/ha
  Plant response rating, Ragweed: 93
[7]; Preemergence, 16 g ai/ha
  Plant response rating, Ragweed: 75
[7]; Preemergence, 31 g ai/ha
  Plant response rating, Ragweed: 99
[7]; Preemergence, 62 g ai/ha
  Plant response rating, Ragweed: 100
[7]; Preemergence, 125 g ai/ha
  Plant response rating, Ragweed: 100
[8]; Postemergence, 16 g ai/ha
  Plant response rating, Waterhemp: 83
[8]; Postemergence, 31 g ai/ha
  Plant response rating, Waterhemp: 88
[8]; Postemergence, 62 g ai/ha
  Plant response rating, Waterhemp: 99
[8]; Postemergence, 125 g ai/ha
  Plant response rating, Waterhemp: 97
[8]; Preemergence, 16 g ai/ha
  Plant response rating, Waterhemp: 75
[8]; Preemergence, 31 g ai/ha
  Plant response rating, Waterhemp: 90
[8]; Preemergence, 62 g ai/ha
  Plant response rating, Waterhemp: 99
[8]; Preemergence, 125 g ai/ha
  Plant response rating, Waterhemp: 99
[9]; Postemergence, 16 g ai/ha
  Plant response rating, Panicum, Fall: 80
[9]; Postemergence, 31 g ai/ha
  Plant response rating, Panicum, Fall: 88
[9]; Postemergence, 62 g ai/ha
  Plant response rating, Panicum, Fall: 93
[9]; Postemergence, 125 g ai/ha
  Plant response rating, Panicum, Fall: 93
[9]; Preemergence, 16 g ai/ha
  Plant response rating, Panicum, Fall: 75
[9]; Preemergence, 31 g ai/ha
  Plant response rating, Panicum, Fall: 99
[9]; Preemergence, 62 g ai/ha
  Plant response rating, Panicum, Fall: 100
[9]; Preemergence, 125 g ai/ha
  Plant response rating, Panicum, Fall: 99
[10]; Postemergence, 16 g ai/ha
  Plant response rating, Corn: 0
[10]; Postemergence, 31 g ai/ha
  Plant response rating, Corn: 20
[10]; Postemergence, 62 g ai/ha
  Plant response rating, Corn: 23
[10]; Postemergence, 125 g ai/ha
  Plant response rating, Corn: 35
[10]; Preemergence, 16 g ai/ha
  Plant response rating, Corn: 0
[10]; Preemergence, 31 g ai/ha
  Plant response rating, Corn: 5
[10]; Preemergence, 62 g ai/ha
  Plant response rating, Corn: 20
[10]; Preemergence, 125 g ai/ha
  Plant response rating, Corn: 43
[11]; Postemergence, 16 g ai/ha
  Plant response rating, Velvetleaf: 75
[11]; Postemergence, 31 g ai/ha
  Plant response rating, Velvetleaf: 90
[11]; Postemergence, 62 g ai/ha
  Plant response rating, Velvetleaf: 85
[11]; Postemergence, 125 g ai/ha
  Plant response rating, Velvetleaf: 90
[11]; Preemergence, 16 g ai/ha
  Plant response rating, Velvetleaf: 75
[11]; Preemergence, 31 g ai/ha
  Plant response rating, Velvetleaf: 100
[11]; Preemergence, 62 g ai/ha
  Plant response rating, Velvetleaf: 100
[11]; Preemergence, 125 g ai/ha
  Plant response rating, Velvetleaf: 100
[12]; Postemergence, 16 g ai/ha
  Plant response rating, Barnyardgrass: 80
[12]; Postemergence, 31 g ai/ha
  Plant response rating, Barnyardgrass: 88
[12]; Postemergence, 62 g ai/ha
  Plant response rating, Barnyardgrass: 93
[12]; Postemergence, 125 g ai/ha
  Plant response rating, Barnyardgrass: 95
[12]; Preemergence, 16 g ai/ha
  Plant response rating, Barnyardgrass: 0
[12]; Preemergence, 31 g ai/ha
  Plant response rating, Barnyardgrass: 40
[12]; Preemergence, 62 g ai/ha
  Plant response rating, Barnyardgrass: 38
[12]; Preemergence, 125 g ai/ha
  Plant response rating, Barnyardgrass: 60
